The values below come from publication PMC8286840, “Identifying SARS-CoV-2 antiviral compounds by screening for small molecule inhibitors of Nsp3 papain-like protease” (Biochemical Journal, 2021).

Each structure is given as a SMILES string. Structures can show the parent of a compound that is named as a salt. Where two headings read alike, the source gives them in different places.

Test [1] has as its target T1, SARS-CoV-2 PLpro (nsp3 1564–1878) (Severe acute respiratory syndrome coronavirus 2, UniProt P0DTD1). Briefly: biochemical. Also on record: FRET-quenched peptide (Pro3) cleavage by PLpro, 10 min pre-incubation, slope over 20 min, normalised to no-compound control. Particulars: low concentration screen, read-out: % of control remaining.
Test [2] has as its target T1, SARS-CoV-2 PLpro (nsp3 1564–1878). Briefly: biochemical. Also on record: FRET-quenched peptide (Pro3) cleavage by PLpro, 10 min pre-incubation, slope over 20 min, normalised to no-compound control. Conditions: high concentration screen, read-out: % of control remaining.

Regarding `O=c1ccn([C@H]2C[C@H](O)[C@@H](CO)O2)c(=O)[nH]1` [2'-Deoxyuridine], the remaining activity at 1.25 µM is 107% in test [1] (Well no.=6627) and 103% in test [1] (Well no.=8893). In addition, the remaining activity at 3.75 µM in test [2] (Well no.=6627) amounted to 102%; in test [2] (Well no.=8893), 103%.

Turning to `COC(=O)N[C@H](C(=O)N[C@@H](Cc1ccccc1)[C@@H](O)CN(Cc1ccc(-c2ccccn2)cc1)NC(=O)[C@@H](NC(=O)OC)C(C)(C)C)C(C)(C)C` [Atazanavir], the remaining activity at 1.25 µM in test [1] (Well no.=1918) is 97.5%. Further, the remaining activity at 3.75 µM in test [2] (Well no.=1918) was 95.7%.

For the molecule `CCN1CCC[C@H]1CNC(=O)c1cc(S(N)(=O)=O)ccc1OC` [Levosulpiride], the remaining activity at 1.25 µM in test [1] (Well no.=6851) was determined as 98%. Also, in test [2] (Well no.=6851), the remaining activity at 3.75 µM worked out at 88.1%.

In the case of `COc1cccc(CCc2ccccc2OCC(CN(C)C)OC(=O)CCC(=O)O)c1` (stereo not shown) [Sarpogrelate (hydrochloride)], the remaining activity at 1.25 µM in test [1] (Well no.=6228) is 106%. Further, in test [2] (Well no.=6228), the remaining activity at 3.75 µM stood at 96.1%.

For the molecule `COc1ccc(C(=O)c2c(C)n(CCN3CCOCC3)c3cc(I)ccc23)cc1` [AM630], the results for the remaining activity at 1.25 µM in test [1] (Well no.=5463) and in test [1] (Well no.=7903) were 103% and 98.5%, respectively. Further, the values for the remaining activity at 3.75 µM in test [2] (Well no.=5463) and in test [2] (Well no.=7903) were 107% and 106%, respectively.

Take `COc1ccc2c3c1O[C@H]1C[C@@H](O)C=C[C@@]31CCN(C)C2`: in test [1] (Well no.=3677), the remaining activity at 1.25 µM was found to be 98.7%. The remaining activity at 3.75 µM in test [2] (Well no.=3677) was 103%.

Regarding `C[C@@H]1CN(C(=O)Nc2ccc(-c3nc(N4CCOCC4)c4cnn(CCCCCCC(=O)NO)c4n3)cc2)CCO1` [HDACs/mTOR Inhibitor 1], the remaining activity at 1.25 µM in test [1] (Well no.=6964) stood at 96.4%. In addition, in test [2] (Well no.=6964), the remaining activity at 3.75 µM was 93.8%.

For `CN1CCN(CC/C=C2/c3ccccc3Sc3ccc(S(=O)(=O)N(C)C)cc32)CC1` [Thiothixene hydrochloride], the remaining activity at 1.25 µM in test [1] (Well no.=1281) came out at 106%. In addition, the remaining activity at 3.75 µM in test [2] (Well no.=1281) was determined as 112%.

As for `COc1cc2c(cc1O)CCN[C@]21CS[C@@H]2c3c(OC(C)=O)c(C)c4c(c3[C@H](COC1=O)N1[C@@H]2[C@H]2c3c(cc(C)c(OC)c3O)C[C@@H]([C@@H]1C#N)N2C)OCO4` [Ecteinascidin 770], in test [1] (Well no.=7070), the remaining activity at 1.25 µM came to 100%. Further, the remaining activity at 3.75 µM in test [2] (Well no.=7070) turned out to be 97.2%.

As for `O=C(N[C@@H]1CC[C@@H](c2cccc(F)c2F)CN(CC(F)(F)F)C1=O)N1CCC(n2c(=O)[nH]c3ncccc32)CC1` [MK-0974], in test [1] (Well no.=7709), the remaining activity at 1.25 µM was 102%. Moreover, the remaining activity at 3.75 µM in test [2] (Well no.=7709) turned out to be 108%.

In the case of `O=c1ccn([C@@H]2O[C@H](CO)[C@@H](O)[C@H]2O)c(=O)[nH]1` [Uridine], the remaining activity at 1.25 µM in test [1] (Well no.=4716) stood at 103%. Further, in test [2] (Well no.=4716), the remaining activity at 3.75 µM was found to be 104%.

As to `CO[C@H]1[C@@H](OC)C[C@H](C)[C@@H](OC)C2=CC(=O)C=C(NC(=O)/C(C)=C/C=C\[C@H](OC)[C@@H](OC(N)=O)/C(C)=C/[C@@H]1C)C2=O` [Herbimycin A, Streptomyces sp.], the remaining activity at 1.25 µM in test [1] (Well no.=2419) came out at 104%. In test [2] (Well no.=2419), the remaining activity at 3.75 µM was determined as 111%.

In the case of `CN1[C@@H]2C[C@@H](OC(=O)[C@H](CO)c3ccccc3)C[C@H]1[C@@H]1O[C@@H]12` [Scopolamine], the remaining activity at 1.25 µM in test [1] (Well no.=2245) came to 100%. Besides, the remaining activity at 3.75 µM in test [2] (Well no.=2245) turned out to be 100%.

For the molecule `CNC(=O)c1ccccc1Oc1nc(Nc2cc(OC)c(OC)c(OC)c2)ncc1Br` [SBI-0206965], in test [1] (Well no.=7028), the remaining activity at 1.25 µM amounted to 105%. For the same molecule, the remaining activity at 3.75 µM in test [2] (Well no.=7028) was found to be 103%.

Take `c1ccc2c(N3CCNCC3)cccc2c1` [1-(1-Naphthyl)piperazine hydrochloride]: the remaining activity at 1.25 µM in test [1] (Well no.=1467) amounted to 99.5%. The remaining activity at 3.75 µM in test [2] (Well no.=1467) was determined as 99.2%.

`NC(CCP(=O)(O)O)C(=O)O` (racemic): in test [1] (Well no.=297), the remaining activity at 1.25 µM was 102%. In test [2] (Well no.=297), the remaining activity at 3.75 µM worked out at 101%.

On to `NCCS(=O)(=O)O` [Taurine], for which the remaining activity at 1.25 µM in test [1] (Well no.=1233) is 102%; in test [1] (Well no.=6299), 98.3%. In addition, the remaining activity at 3.75 µM in test [2] (Well no.=1233) was determined as 104%; in test [2] (Well no.=6299) it was 96.7%.

For the molecule `O=c1[nH]cnc2nc[nH]c12` [Hypoxanthine], the remaining activity at 1.25 µM was found to be 96.5% in test [1] (Well no.=5246) and 91.9% in test [1] (Well no.=7269). In addition, the results for the remaining activity at 3.75 µM in test [2] (Well no.=5246) and in test [2] (Well no.=7269) were 96.5% and 89.6%, respectively.

Take `CCC1(c2ccc(N)cc2)CCC(=O)NC1=O` (racemic): the remaining activity at 1.25 µM in test [1] (Well no.=202) is 100%. Moreover, the remaining activity at 3.75 µM in test [2] (Well no.=202) amounted to 102%.

In the case of `COc1cc2oc(-c3ccc(O)c(O)c3)cc(=O)c2c(O)c1OC` [2-(3,4-dihydroxyphenyl)-5-hydroxy-6,7-dimethoxy-4H-chromen-4-one], in test [1] (Well no.=5979), the remaining activity at 1.25 µM is 97%. The remaining activity at 3.75 µM in test [2] (Well no.=5979) was determined as 93.4%.

On to `N=C(N)N/N=C/c1c(Cl)cccc1Cl` [Guanabenz], for which the remaining activity at 1.25 µM in test [1] (Well no.=1693) was 105%. Also, the remaining activity at 3.75 µM in test [2] (Well no.=1693) stood at 105%.

Regarding `O=C1NCC2(CCN(CCc3ccccc3)CC2)O1` [Fenspiride (Hydrochloride)], the remaining activity at 1.25 µM in test [1] (Well no.=6705) was 104%. Further, the remaining activity at 3.75 µM in test [2] (Well no.=6705) came to 100%.

On to `CN(C)CCOC(=O)COc1ccc(Cl)cc1` [Centrophenoxine hydrochloride], for which, in test [1] (Well no.=46), the remaining activity at 1.25 µM was 103%. The remaining activity at 3.75 µM in test [2] (Well no.=46) was found to be 107%.

Turning to `CC(C)N(CCNC(=O)CN1CCCC1=O)C(C)C` [Pramiracetam], the remaining activity at 1.25 µM in test [1] (Well no.=4950) stood at 96.1%. Besides, the remaining activity at 3.75 µM in test [2] (Well no.=4950) stood at 96.4%.

Take `CC(C)C[C@H](NC(=O)[C@H](Cc1ccccc1)NC(=O)c1cnccn1)B(O)O` [Bortezomib]: the remaining activity at 1.25 µM came to 99.9% in test [1] (Well no.=1768) and 98.1% in test [1] (Well no.=6302). For the same molecule, in test [2] (Well no.=1768), the remaining activity at 3.75 µM is 101%.

As to `CC(C)(C)NCC(O)c1ccccc1Cl` (stereo not shown) [Tulobuterol], in test [1] (Well no.=2027), the remaining activity at 1.25 µM was 98.5%. In addition, in test [2] (Well no.=2027), the remaining activity at 3.75 µM came out at 100%.

Consider `CC1=C[C@@H]2c3cccc4[nH]cc(c34)C[C@H]2N(C)C1` [Agroclavine], for which, in test [1] (Well no.=210), the remaining activity at 1.25 µM stood at 94.3%. Further, the remaining activity at 3.75 µM in test [2] (Well no.=210) is 93.5%.

Regarding `CC1CNc2c(cccc2S(=O)(=O)N[C@@H](CCCNC(=N)N)C(=O)N2CC[C@@H](C)C[C@@H]2C(=O)O)C1` (stereo partly shown) [Argatroban (monohydrate)], in test [1] (Well no.=8454), the remaining activity at 1.25 µM was 103%. Also, the remaining activity at 3.75 µM in test [2] (Well no.=8454) turned out to be 101%.

On to `CC#CC(=O)Nc1cc2c(Nc3ccc(F)c(Cl)c3)ncnc2cn1` [EGFR/ErbB-2/ErbB-4 Inhibitor], for which, in test [1] (Well no.=2405), the remaining activity at 1.25 µM came out at 102%. Besides, the remaining activity at 3.75 µM in test [2] (Well no.=2405) is 105%.
